# Reference: patent publication US10308641B2, “Crystal form of 3-(6-(1-(2,2-difluorobenzo[d][1,3]dioxole-5-yl)cyclopropane formamido)-3-methylpyridine-2-yl)benzoic acid and preparation method thereof” (CRYSTAL PHARMATECH CO., LTD., priority 2015, dated 2019)
# Experiments:
# Assay type in all cases: physicochemical
# [1] = Hygroscopicity assessment by dynamic vapor sorption (DVS); details: for Weight Gain under 80% Relative Humidity: DVS
# Procedure: Dynamic vapor sorption (DVS) data in the present disclosure was acquired by a SMS (Surface Measurement Systems Ltd.) DVS Intrinsic. About 10 mg of crystalline Form A of present disclosure was used for DVS test. The parameters of the dynamic vapor sorption (DVS) method of the present disclosure were as follows:
# Gas and flow rate: N2, 200 mL/min
# RH range: 0% RH to 95% RH
# Maximum equilibrate time: 180 min
# Humidity gradient: 10% (0% RH-90% RH), 5% (90% RH-95% RH).
# About 12.2 mg of crystalline Form A of the present disclosure was used for hygroscopicity testing using dynamic vapor sorption (DVS), crystalline Form A underwent a 0-95%-0 cycle of the relative humidity (RH) change. 4. The XRPD patterns of crystalline Form A before and after hygroscopicity assessment are depicted in FIG. 6. The pattern above is before DVS and the below one is after DVS.
# About hygroscopicity characterization description and definition of hygroscopicity (Chinese Pharmacopoeia 2010 edition appendix XIV Drug hygroscopic test guidelines, test at 25° C.+/−1° C., 80% Relative Humidity) • deliquescent: sufficient water is absorbed to form a liquid. • very hygroscopic: increase in mass is equal to or greater than 15%. • hygroscopic: increase in mass is less than 15% and equal to or greater than 2%. • slightly hygroscopic: increase in mass is less than 2% and equal to or greater than 0.2%. • no or almost no hygroscopic: increase in mass is less than 0.2%.
# [2] = Stability assessment on storage (XRPD and purity)
# Procedure: The crystalline Form A of the compound of formula (I) of the present disclosure was stored under 25° C./60% RH and 40° C./75% RH for 90 days. XRPD and purity of the samples were collected after storing for 15 days, 30 days and 90 days. […] The XRPD results of crystalline Form A before and after storing under 25° C./60% RH and 40° C./75% RH for 90 days are depicted in FIG. 7 (FIG. 7: the top, middle and bottom are initial crystalline Form A, crystalline Form A after storing at 25° C./60% RH and 40° C./75% RH for 90 days respectively).
# [3] = Solubility comparison, saturated solutions in SGF, FeSSIF, FaSSIF and water, by HPLC; details: for Solubility FeSSIF: pH5.0 FeSSIF; for Solubility FaSSIF: pH6.5 FaSSIF
# Procedure: Crystalline Form A of the present disclosure and Form I disclosed in CN101910156A are prepared into saturated solution in SGF (Simulated gastric fluids), pH5.0 FeSSIF (Fed state simulated intestinal fluids), pH6.5 FaSSIF (Fasted state simulated intestinal fluids) and water. Concentrations in the saturation solutions were tested after 1 hour, 4 hours and 24 hours by HPLC.
# [4] = as above; details: FaSSIF, FeSSIF and H2O after 1 hour, 2 hours and 24 hours
SMILES,"Solubility H2O ([3]; H2O, 1 hour) [µg/mL]","Solubility H2O ([3]; H2O, 4 hours) [µg/mL]",Solubility SGF ([3]; 1 hour) [µg/mL],Solubility SGF ([3]; 4 hours) [µg/mL],Solubility SGF ([3]; 24 hours) [µg/mL],Solubility FeSSIF ([3]; 1 hour) [µg/mL],Solubility FeSSIF ([3]; 4 hours) [µg/mL],Solubility FeSSIF ([3]; 24 hours) [µg/mL],Solubility FaSSIF ([3]; 1 hour) [µg/mL],Solubility FaSSIF ([3]; 4 hours) [µg/mL],Solubility FaSSIF ([3]; 24 hours) [µg/mL],other results
"Cc1ccc(NC(=O)C2(c3ccc4c(c3)OC(F)(F)O4)CC2)nc1-c1cccc(C(=O)O)c1 [Form A, 3-(6-(1-(2,2-difluorobenzo [d] [1,3]dioxol-5-yl)cyclopropanecarboxamido)-3-methylpyridin-2-yl) benzoic acid]",8.6,16,0.9,1.9,2,17,18,20,8.2,11,9.5,"Crystalline form after DVS test (XRPD before and after) ([1]; 0-95%-0 RH cycle): didn't change; Hygroscopicity class ([1]; Chinese Pharmacopoeia 2010 criteria, 25° C., 80% RH): non-hygroscopic or almost non-hygroscopic; Weight Gain under 80% Relative Humidity ([1]; 25° C., 80% RH, listed as Crystalline Form A of the compound of formula (I)): 0.10%; Weight Gain under 80% Relative Humidity ([1]; 25° C., 80% RH, listed as crystalline Form A of the compound of formula (I)): 0.10%; Stability (Purity %) 25° C./60% RH ([2]; 25° C./60% RH, 15 days): 99.94%; Stability (Purity %) 25° C./60% RH ([2]; 25° C./60% RH, 30 days): 99.90%; Stability (Purity %) 25° C./60% RH ([2]; 25° C./60% RH, 90 days): 99.93%; Stability under long-term stability condition ([2]; 25° C./60% RH, 90 days, XRPD and purity): stable; Stability (Purity %) 25° C./60% RH ([2]; 25° C./60% RH, Initial): 99.82%; Stability (Purity %) 40° C./75% RH ([2]; 40° C./75% RH, 15 days): 99.94%; Stability (Purity %) 40° C./75% RH ([2]; 40° C./75% RH, 30 days): 99.94%; Stability (Purity %) 40° C./75% RH ([2]; 40° C./75% RH, 90 days): 99.94%; Stability under accelerated stability condition ([2]; 40° C./75% RH, 90 days, XRPD and purity): stable; Stability (Purity %) 40° C./75% RH ([2]; 40° C./75% RH, Initial): 99.82%; solubility at 24 h ([3]; water, thermodynamic from solid, H2O, 24 hours): 25 µg/mL; Solubility compared with Form I disclosed in CN101910156A [4]: higher"
"Cc1ccc(NC(=O)C2(c3ccc4c(c3)OC(F)(F)O4)CC2)nc1-c1cccc(C(=O)O)c1 [Form I, 3-(6-(1-(2,2-difluorobenzo [d] [1,3]dioxol-5-yl)cyclopropanecarboxamido)-3-methylpyridin-2-yl) benzoic acid, reference compound]",2.2,6.7,0.4,<0.22,<0.21,5.5,5.9,5.5,2.3,1.5,0.9,"Solubility H2O ([3]; H2O, 24 hours): 16 µg/mL"
